Tests used:
[1] = tested on: MM1S-luc derived tumors; experiment: Disseminated human myeloma model, CB17-SCID mice; assay type: in vivo; conditions: EDO-S101 15 mg/kg i.v. weekly, daratumumab 8 mg/kg i.p. weekly, 4 weeks; vehicle 33 days
Protocol: MM1S-luc cells (3×10^6) were injected intravenously (i.v.) into CB17-SCID mice which were determined to have normal NK cells, monocytes and granulocytes (The Jackson Laboratory, Bar Harbor, ME, USA). Tumor development was monitored by non-invasive bioluminescence imaging (BLI) with a Xenogen IVIS 50 system (Caliper Life Sciences, Hopkinton, MA, USA). Mice were randomized into four groups (n=5/group): one receiving vehicle (i.v., weekly), another group receiving EDO-S101 (15 mg/kg i.v., weekly on Tuesdays), another group receiving daratumumab (8 mg/kg i.p., weekly on Wednesdays) and the last group receiving the double combination of EDO-S101+daratumumab. Both drugs were administered over a period of 4 weeks.
CB17-SCID mice bearing MM1S-luc derived tumors were treated with EDO-S101, daratumumab, a combination thereof, or vehicle, in accordance with the methods outlined above. MM1S-Luc cells (3×10^6) were intravenously injected into CB17-SCID mice. After 2 weeks, mice were randomized into four groups: one receiving vehicle (i.v., weekly), another group receiving EDO-S101 (15 mg/kg i.v., weekly on Tuesdays), another group receiving daratumumab (8 mg/kg i.p., weekly on Wednesdays) and the last group received the double combination of EDO-S101+daratumumab. Survival of mice analyzed with a Kaplan-Meier curve. Both drugs were administered over a period of 4 weeks.

[2] = tested on: MICA mRNA; experiment: MICA mRNA by RT-qPCR in MM cell lines; assay type: cell-based, human; conditions: four MM cell lines tested; 1 and 2.5 μM, 36 hours (MOLP-8 6 hours)
Protocol: (§1) Real time quantitative PCR (RT-qPCR) Total RNA was isolated using the RNeasy Mini Kit (Qiagen, Hilden, Germany). Following reverse transcription, PCR was performed using TaqMan Gene Expression Assays (Applied Biosystems, Foster City, CA, USA): CD38 (Hs01120071_m1), MICA (Hs00741286_m1), MICB (Hs00792952_m1) and GAPDH (Hs99999905_m1). The results were expressed as fold change relative to expression of the target gene in control cells, using endogenous expression of GAPDH for normalization.

[3] = tested on: CD38; experiment: CD38 surface expression in MM cell lines by flow cytometry; assay type: cell-based, human
Protocol: Cell Treatment with EDO-S101 MM cells (MM1S, JJN3, KMS12-BM, RPMI-8226, U266, MOLP-8) were either treated with a control (0 μM EDO-S101, DMSO vehicle) or treated with EDO-S101 (0.1, 0.5, 1 or 2.5 μM in DMSO) for 48 hours, unless indicated otherwise.
For surface staining, cells were incubated with the appropriate antibodies and 7AAD (Immunostep) for 15 min in the dark. Data were acquired using a FACSCalibur cytometer (BD Biosciences) and analyzed using Infinicyt™ software (Cytognos). Specifically, the expression of CD38 or ligands for NK cell activating receptors (MICA, MICB, ULBP1-3, PVR and CD112) in MM cell lines was determined on the viable cell population (7AAD-). In primary myeloma cells, the expression of CD38 was analyzed over the viable myeloma population using the panel CD138-FITC/CD56-PE/7AAD/CD38-APC, whereas MICA/B-AF488/CD56-PE/7AAD/CD38-APC panel was used to determine MICA/B expression. Normalized median fluorescence intensity (MFI) was calculated by dividing median fluorescence obtained with the specific antibody by median fluorescence of the corresponding isotype control. MFI for each treatment was expressed as a percentage relative to the control (100%, cells cultured in media with DMSO). […]

[4] = tested on: CD38 histone H3 acetylation; experiment: ChIP-qPCR of CD38 histone H3 acetylation; assay type: cell-based, human; conditions: MM.1S (similar in RPMI-8226); 2.5 μM, 48 hours; vs DMSO
Protocol: Chromatin Immunoprecipitation RPMI-8226 and MM.1S cell lines were treated with DMSO or tinostamustine (2.5 μM) for 48 hours. Then, the cells were fixed with Pierce™ fresh methanol-free formaldehyde (ThermoFisher) for 15 minutes and prepared for sonication with the truChIP Chromatin Shearing Kit (Covaris, Woburn, MA, USA), following the manufacturer's instructions and as previously described (Garcia-Gomez et al., Nat Commun 12: 421, 2021).
For ChIP-qPCR, samples were diluted 1/10, and 4 μL and specific primers (Supplementary Table 1) were used for each reaction. RT-qPCR was performed in technical triplicates for each biological replicate, using LightCycler® 480 SYBR Green Mix (Roche). The relative amount of immunoprecipitated DNA was compared to the input DNA for each condition.

[5] = tested on: MICB mRNA; experiment: MICB mRNA by RT-qPCR in MM cell lines; assay type: cell-based, human; conditions: all four MM cell lines except MOLP-8; 1 and 2.5 μM, 36 hours
Protocol: as §1

[6] = tested on: ULBP1; experiment: Surface expression of NK cell activating ligands by flow cytometry; assay type: cell-based, human; conditions: MM cell lines tested; not basally expressed; data not shown
Protocol: (§2) For surface staining, cells were incubated with the appropriate antibodies and 7AAD (Immunostep) for 15 min in the dark. Data were acquired using a FACSCalibur cytometer (BD Biosciences) and analyzed using Infinicyt™ software (Cytognos). Specifically, the expression of CD38 or ligands for NK cell activating receptors (MICA, MICB, ULBP1-3, PVR and CD112) in MM cell lines was determined on the viable cell population (7AAD-). In primary myeloma cells, the expression of CD38 was analyzed over the viable myeloma population using the panel CD138-FITC/CD56-PE/7AAD/CD38-APC, whereas MICA/B-AF488/CD56-PE/7AAD/CD38-APC panel was used to determine MICA/B expression. Normalized median fluorescence intensity (MFI) was calculated by dividing median fluorescence obtained with the specific antibody by median fluorescence of the corresponding isotype control. MFI for each treatment was expressed as a percentage relative to the control (100%, cells cultured in media with DMSO).
(§3) MM cells (JJN3, MM1.S, RPMI-8226, MOLP-8) were treated with EDO-S101 (1 and 2.5 μm) for 48 hours in accordance with the methods outlined above. After incubation, expression of several ligands for NK cell activating receptors: MICA, MICB, ULBP1, ULPB2, ULPB3, CD155 (PVR) and CD112 (Nectin-2) were measured using flow cytometry. Flow cytometry was then performed in accordance with the methods outlined above to calculate.

[7] = tested on: ULBP3; experiment: as above; assay type: cell-based, human; conditions: RPMI-8226, 48 hours, DMSO = 100
Protocol: as §2, §3

[8] = tested on: ULBP2; experiment: as above; assay type: cell-based, human; conditions: 48 hours, DMSO = 100
Protocol: as §2, §3

[9] = tested on: MICB; experiment: as above; assay type: cell-based, human; conditions: 48 hours, DMSO = 100
Protocol: as §2, §3

[10] = tested on: CD112; experiment: as above; assay type: cell-based, human; conditions: RPMI-8226, 48 hours, DMSO = 100
Protocol: as §2, §3

What does the source list for `Cn1c(CCCCCCC(=O)NO)nc2cc(N(CCCl)CCCl)ccc21` [EDO-S101, 7-(5-(bis(2-chloroethyl)amino)-1-methyl-1H-benzo[d]imidazol-2-yl)-N-hydroxyheptanamide]?
median survival [1]: 45 days; expression of MICA at the mRNA level [2]: increased; percentage of CD38+ cell population ([3]; JJN3 cell line, 1 and 2.5 μM): significantly increased; CD38 surface expression (normalized MFI) ([3]; MM1.S, JJN3, KMS12-BM, RPMI-8226, U226, MOLP-8, 0.1, 0.5, 1 and 2.5 μM, 48 hours, relative to DMSO control, only exception NCI-H929): significantly increased; CD38 histone H3 acetylation levels [4]: elevated; expression of MICB at the mRNA level [5]: increased; ULBP1 expression [6]: did not change; Normalized MFI ULBP3 ([7]; EDO-S101 1 μM): 111.7 ± 14.8%; Normalized MFI ULBP3 ([7]; EDO-S101 2.5 μM): 129.6 ± 20.2%; Normalized MFI ULBP2 ([8]; JJN3, EDO-S101 1 μM): 110.5 ± 9.5%; Normalized MFI ULBP2 ([8]; JJN3, EDO-S101 2.5 μM): 112.9 ± 13.4%; Normalized MFI ULBP2 ([8]; MM1.S, EDO-S101 1 μM): 95.8 ± 4.5%; Normalized MFI ULBP2 ([8]; MM1.S, EDO-S101 2.5 μM): 96.3 ± 12.3%; Normalized MFI ULBP2 ([8]; MOLP-8, EDO-S101 1 μM): 116.1 ± 4.6%; Normalized MFI ULBP2 ([8]; MOLP-8, EDO-S101 2.5 μM): 124.7 ± 13.5%; Normalized MFI MICB ([9]; JJN3, EDO-S101 1 μM): 137.6 ± 14%; Normalized MFI MICB ([9]; JJN3, EDO-S101 2.5 μM): 144.9 ± 28%; Normalized MFI MICB ([9]; MM1.S, EDO-S101 1 μM): 113.8 ± 7.6%; Normalized MFI MICB ([9]; MM1.S, EDO-S101 2.5 μM): 113.4 ± 3.3%; Normalized MFI MICB ([9]; MOLP-8, EDO-S101 1 μM): 107.8 ± 0.5%; Normalized MFI MICB ([9]; MOLP-8, EDO-S101 2.5 μM): 119.3 ± 7.7%; Normalized MFI MICB ([9]; RPMI-8226, EDO-S101 1 μM): 107.1 ± 6.6%; Normalized MFI MICB ([9]; RPMI-8226, EDO-S101 2.5 μM): 131.3 ± 9.4%; Normalized MFI CD112 ([10]; EDO-S101 1 μM): 116.6 ± 13.2%; Normalized MFI CD112 ([10]; EDO-S101 2.5 μM): 142.8 ± 11.5%
